Results reported in patent publication US20160089348A1, “USE OF AN S1P RECEPTOR AGONIST” (priority 2009, published 2016).

Key:
[1] = system: patients with relapsing-remitting MS (RRMS); assay: MRI lesion measures (Gd-enhancing, T2, T1 hypointense lesions) in clinical study of daily oral fingolimod vs placebo; format: in vivo, human; conditions: for T1 hypointense lesion volume, months 0-24 - % change, Mean ± SD / T1 hypointense lesion volume, months 0-24 - % change, Median (range) / T2 lesion volume, months 0-24 - % change, Mean ± SD / T2 lesion volume, months 0-24 - % change, Median (range) / Patients free from new or enlarged T2 lesions, months 0-24 - (%) / Patients free from new or enlarged T2 lesions, months 0-24 - no.: RRMS patients
Description: Annualized relapse rate (ARR) over 24 months (primary endpoint) and time to disability progression (key secondary endpoint) is assessed in patients with relapsing-remitting MS (RRMS). Patients aged 18-55 years with an Expanded Disability Status Scale score 0-5.5, relapse in the previous year (or ≧2 in the previous 2 years) are randomized to daily oral fingolimod 1.25 mg or 0.5 mg, or placebo. […] The brain volume changes for months 0 to 12 is measured using SIENA software.

[2] = system: patients with relapsing-remitting MS (RRMS); assay: Brain volume change (brain atrophy) by MRI using SIENA software in clinical study of daily oral fingolimod vs placebo; format: in vivo, human; conditions: for Brain volume, Percent change from Month 12 to Month 24, Mean (SD) / Brain volume, Percent change from Month 12 to Month 24, Median / Brain volume, Percent change from baseline to Month 24, Mean (SD) / Brain volume, Percent change from baseline to Month 24, Median / Brain volume, Percent change from baseline to Month 12, Mean (SD) / Brain volume, Percent change from baseline to Month 12, Median / Brain volume, Percent change from baseline to Month 6, Mean (SD) / Brain volume, Percent change from baseline to Month 6, Median: RRMS patients
Description: Annualized relapse rate (ARR) over 24 months (primary endpoint) and time to disability progression (key secondary endpoint) is assessed in patients with relapsing-remitting MS (RRMS). Patients aged 18-55 years with an Expanded Disability Status Scale score 0-5.5, relapse in the previous year (or ≧2 in the previous 2 years) are randomized to daily oral fingolimod 1.25 mg or 0.5 mg, or placebo. […]

[3] = fingolimod 0.5 mg daily oral, N = 346 with MRI data
[4] = fingolimod 0.5 mg daily oral, N = 368 with MRI data
[5] = fingolimod 0.5 mg daily oral, N = 425
[6] = fingolimod 1.25 mg daily oral, N = 317 with MRI data
[7] = fingolimod 1.25 mg daily oral, N = 343 with MRI data
[8] = fingolimod 1.25 mg daily oral, N = 429
[9] = both fingolimod groups (1.25 mg, 0.5 mg), at 6, 12 and 24 months
[10] = FTY720 0.5 mg daily oral, n 356
[11] = FTY720 0.5 mg daily oral, n 357
[12] = FTY720 0.5 mg daily oral, n 383
[13] = FTY720 0.5 mg daily oral, n 395
[14] = FTY720 1.25 mg daily oral, n 327
[15] = FTY720 1.25 mg daily oral, n 334
[16] = FTY720 1.25 mg daily oral, n 371
[17] = FTY720 1.25 mg daily oral, n 384
[18] = fingolimod-treated patients, baseline to month 24

For `CCCCCCCCc1ccc(CCC(N)(CO)CO)cc1.Cl` [fingolimod, 2-amino-2-[2-(4-octylphenyl)ethyl]propane-1,3-diol], the “T1 hypointense lesion volume, months 0-24 - % change, Mean ± SD” value [1, 3] was 8.8 ± 76.27%, the “T1 hypointense lesion volume, months 0-24 - % change, Median (range)” value [1, 3] was 0.00 (−100.0-1037.1) % and the “T2 lesion volume, months 0-24 - % change, Mean ± SD” value [1, 4] was 10.6 ± 103.46%. For the same molecule, the “T2 lesion volume, months 0-24 - % change, Median (range)” value [1, 4] was −1.69 (−100.0-1828.5) %, the “Patients free from new or enlarged T2 lesions, months 0-24 - (%)” value [1, 5] was 50.5% and the “Patients free from new or enlarged T2 lesions, months 0-24 - no.” value [1, 5] was 187. The “T1 hypointense lesion volume, months 0-24 - % change, Mean ± SD” value [1, 6] was 12.2 ± 85.49%, the “T1 hypointense lesion volume, months 0-24 - % change, Median (range)” value [1, 6] was −0.20 (−100.0-888.4) % and the “T2 lesion volume, months 0-24 - % change, Mean ± SD” value [1, 7] was 1.6 ± 30.71%. For the same molecule, the “T2 lesion volume, months 0-24 - % change, Median (range)” value [1, 7] was −3.10 (−68.2-221.5) %, the “Patients free from new or enlarged T2 lesions, months 0-24 - (%)” value [1, 8] was 51.9% and the “Patients free from new or enlarged T2 lesions, months 0-24 - no.” value [1, 8] was 175. For the same molecule, the “Proportions of patients free from new or enlarged T2 lesions versus placebo” value ([1]; both fingolimod doses, over 24 months) was “greater proportions of patients are free from these lesions”, the “Gd-enhancing lesions versus placebo group” value [1, 9] was “significantly fewer Gd-enhancing lesions than those in the placebo group” and the “Patients free from Gd-enhancing lesions versus placebo” value [1, 9] was “proportionately more patients are free from Gd-enhancing lesions”. For the same molecule, the “New or enlarged T2 lesions versus placebo” value ([1]; fingolimod 0.5 mg or 1.25 mg, over 24 months) was “Fewer new or enlarged T2 lesions”, the “Volume of T2 lesions, change from baseline to month 24” value ([1]; fingolimod-treated patients, increases with placebo) was “decreases” and the “Brain volume, Percent change from Month 12 to Month 24, Mean (SD)” value [2, 10] was −0.370 (0.8073) %. The “Brain volume, Percent change from Month 12 to Month 24, Median” value [2, 10] was −0.340%, the “Brain volume, Percent change from baseline to Month 24, Mean (SD)” value [2, 11] was −0.843 (1.3120) % and the “Brain volume, Percent change from baseline to Month 24, Median” value [2, 11] was −0.670%. The “Brain volume, Percent change from baseline to Month 12, Mean (SD)” value [2, 12] was −0.500 (1.0509) %, the “Brain volume, Percent change from baseline to Month 12, Median” value [2, 12] was −0.380% and the “Brain volume, Percent change from baseline to Month 6, Mean (SD)” value [2, 13] was −0.224 (0.8131) %. The “Brain volume, Percent change from baseline to Month 6, Median” value [2, 13] was −0.140%, the “Brain volume, Percent change from Month 12 to Month 24, Mean (SD)” value [2, 14] was −0.423 (0.8284) % and the “Brain volume, Percent change from Month 12 to Month 24, Median” value [2, 14] was −0.380%. For the same molecule, the “Brain volume, Percent change from baseline to Month 24, Mean (SD)” value [2, 15] was −0.885 (1.3857) %, the “Brain volume, Percent change from baseline to Month 24, Median” value [2, 15] was −0.700% and the “Brain volume, Percent change from baseline to Month 12, Mean (SD)” value [2, 16] was −0.438 (1.0792) %. The “Brain volume, Percent change from baseline to Month 12, Median” value [2, 16] was −0.300%, the “Brain volume, Percent change from baseline to Month 6, Mean (SD)” value [2, 17] was −0.209 (0.8649) % and the “Brain volume, Percent change from baseline to Month 6, Median” value [2, 17] was −0.120%. For the same molecule, the “Reduction in atrophy rate versus placebo” value [2, 18] was 30% and the “Reduction in brain volume versus placebo group” value [2, 18] was “significantly less reduction in brain volume than those in the placebo group”.
